From patent US6255517A, “Thymol derivatives having anti-tumor activity, and anti-cancer agent comprising the same” (Zee; Ok Pyo, priority 1998, dated 2001)
Read-outs that look alike come from different tables or passages of the source.

Experiments:
Assay type in all cases: cell-based
A549 = experiment: SRB cytotoxicity (anti-tumor activity) in vitro, A549; conditions: Homo sapiens
Excerpt: (§1) Anti-Tumor (Cyto-Toxicity) Effect in vitro of the Compound According to the Present Invention
(§2) The method for detecting cyto-toxicity employed in the present experiment is Sulforhodamin B Bioassay (SRB) method, which was developed by National Cancer Institute (NCI) in the United States in 1989, for the purpose of measuring anti-tumor activity in vitro.
(§3) The tumor cells used in the experiments via SRB method are listed below:
A549: non small cell lungcarcinoma
(§4) The tumor cells listed above are all human tumor cell-lines, which were distributed from NCI in the United States and subcultured in Korea Chemical Institute. As a culture medium, RPMI 1640 culture medium supplemented with 5% FBS (fetal bovine serum) was used. Cultivation was performed in an 5% CO2 incubator with constant temperature (37° C.) and humidity. The subculture was carried out every three or four days, and a solution of 0.25% tyrosine and 3 mM trans-1,2-diaminocyclohexane-n,n,n,n-tetracetic acid (CDTA) dissolved in PBS (phosphate buffered saline) was used in order to release cells from the surface of the container.
(§5) The test compound synthesized according to the present invention was diluted to have a concentration of 30.0 μg/ml, 10.0 μg/ml, 3.0 μg/ml, 1.0 μg/ml, 0.3 μg/ml and 0.1 μg/ml, respectively, and the cyto-toxicity (anti-tumor activity) of the compound was measured. The maximum concentration of the sample was not more than 30.0 μg/ml. In order to prepare the samples for detection, DMSO (dimethylsulfoxide) was used, if necessary. The concentration of DMSO added was not more than 0.5%. Before added to the tumor cells, the sample solution, which was diluted via several steps, is filtered through a Millipore filter. In a sterile condition, the sample for detecting cyto-toxicity was prepared by means of SRB method using human tumor cell-lines such as A549, SK-OV-3, SK-MEL-2, XF498 and HCT15.
(§6) The subcultured tumor cells were released from the surface of instrument by using tyrosine-CDTA solution, and then charged on a 96-well flat bottom microplate to make the cell number 5×10^3 (A549, HCT15), 1×10^4 (SK-MEL-2, XF498) and 2×10^4 (SK-OV-3) for each cell. The tumor cells are attached on the bottom by cultivating in a CO2 incubator. After removing the culture medium by using an aspirator, the medium is eliminated by using log dose of six concentrations. To each well, 100 μl of 10% TCA (trichloroacetic acid) is added, and the plate was left for 1 hour at 4° C. to fix the cells on the bottom surface of the plate.
(§7) Then, the plate was washed with distilled water 5-6 times to completely remove the residual TCA solution, and dried up at room temperature. To each well of the completely dried plate, 100 μl of dye solution, in which 0.4% SRB solution was dissolved, was added to dye the cells for 30 minutes, and the cells were washed with 1% acetic acid to remove excess SRB which was not combined with the cells. The dyed cell plates were dried at room temperature, and 100 μl of 10 mM trisma base solution was added to each well. The solution was mixed by a titer plate shaker for 10 minutes to elute the dye solution. Then, the absorbance at 520 nm was measured by using a microplate reader.
(§8) In order to calculate the cyto-toxicity (anti-tumor activity) of the samples on tumor cells, the number of tumor cells at the point of adding the sample (Tz, zero time), the number of cells when only an excess amount of culture medium was added instead of the sample and cultured for 48 hours (C, control), and the number of cells when each concentration of the sample was added and cultured for 48 hours (T, test) were measured respectively. The cyto-toxicity was determined according to the following formulas:
(§9) When Tz>T: [(T-Tz)/(C-Tz)]×100
(§10) When Tz<T: [(T-Tz)/Tz]×100
(§11) From the calculated values thus obtained, ED50 (50% effective dose) [the concentration when the sample inhibits 50% of the growth of the tumor cells] was determined by the use of data regression tool of LOTUS program. […]

SK-OV-3 = experiment: SRB cytotoxicity (anti-tumor activity) in vitro, SK-OV-3; conditions: Homo sapiens, SK-OV-3 ovary adenocarcinoma, 48 hours, read-out: ED50 (the source's name)
Excerpt: as §1, §2, §3
SK-OV-3: adenocarcinoma, ovary malignant ascites
as §4, §5, §6, §7, §8, §9, §10, §11

XF498 = experiment: SRB cytotoxicity (anti-tumor activity) in vitro, XF498; conditions: Homo sapiens, XF498 central nerve system tumor, 48 hours, read-out: ED50 (the source's name)
Excerpt: as §1, §2, §3
XF498: central nerve system tumor
as §4, §5, §6, §7, §8, §9, §10, §11

SK-MEL-2 = experiment: SRB cytotoxicity (anti-tumor activity) in vitro, SK-MEL-2; conditions: Homo sapiens, SK-MEL-2 malignant melanoma, 48 hours, read-out: ED50 (the source's name)
Excerpt: as §1, §2, §3
SK-MEL-2: malignant melanoma, metastasis to skin of thigh
as §4, §5, §6, §7, §8, §9, §10, §11

HCT15 = experiment: SRB cytotoxicity (anti-tumor activity) in vitro, HCT15; conditions: Homo sapiens, HCT-15, HCT15 colon adenocarcinoma, 48 hours, read-out: ED50 (the source's name)
Excerpt: as §1, §2, §3
HCT15: colon adenocarcinoma
as §4, §5, §6, §7, §8, §9, §10, §11

[1] = A549 non small cell lung carcinoma, SRB, 48 hours, read-out: ED50 (the source's name)

SMILES	IC50 (A549; [1])	IC50 (SK-OV-3)	IC50 (XF498)	IC50 (SK-MEL-2)	IC50 (HCT15)	IC50 (A549; A549, 48 h, read-out: ED50)
CC(=O)Oc1cc(C)ccc1C(O)(CO)COC(=O)Cc1ccc([N+](=O)[O-])cc1 (stereo not shown) [Compound 15-2, 10-(4-Nitrophenylacetoxy)-8,9-dihydroxythymol acetate]	> 100 µM	25.8 µM	45.1 µM	12.8 µM	20.2 µM	
CC(=O)Oc1ccccc1C1(COC(=O)c2ccc(C)cc2)CO1 (stereo not shown) [Compound 33-6]	41.4 µM	10.6 µM	8.7 µM	6.9 µM	9.3 µM	
Cc1ccc(C2(COC(=O)Cc3ccccc3)CO2)c(OC(=O)C(C)C)c1 (stereo not shown) [Compound 11-1, 10-Phenylacetoxy-8,9-epoxythymol isobutyrate]		7.9 µM	32.5 µM	10.5 µM	9.5 µM	35.5 µM
COc1ccc(CC(=O)OCC(O)(CO)c2ccc(C)cc2OC(C)=O)cc1 (stereo not shown) [Compound 15-4, 10-(4-Methoxyphenylacetoxy)-8,9-dihydroxythymol acetate]	> 100 µM	21.3 µM	55.7 µM	12 µM	11.2 µM	
C=C(COS(=O)(=O)c1ccc(OC)cc1)c1ccc(C)cc1OC(C)=O [13'-3, 10-(4-Methoxybenzenesulfoxy)-8,9-methylenethymol acetate]	28.2 µM	27.4 µM		8.4 µM	2.6 µM	
C=C(CO)c1ccc(C)cc1OS(=O)(=O)c1ccc(C)cc1 [Compound 35-3, 2-(2-(4'-Toluenesulfoxy)-4-methylphenyl)-prop-2-ene-1-ol]	13.1 µM	14.6 µM	14 µM	17.9 µM	13.9 µM	
CC(=O)Oc1cc(C)ccc1C1(COC(=O)Cc2ccc([N+](=O)[O-])cc2)CO1 (stereo not shown) [Compound 14-3, 10-(4-Nitrophenylacetoxy)-8,9-epoxythymol acetate]	38.3 µM	25.6 µM	35.4 µM	11 µM	10.6 µM	
C=C(CO)c1ccc(C)cc1OCc1ccc(C)cc1 [Compound 35-2, 2-(2-(4'-Methylbenzyloxy)-4-methylphenyl)-prop-2-ene-1-ol]	10.9 µM	9.6 µM	7.2 µM	8.8 µM	9.1 µM	
C=C(CO)c1ccc(C)cc1OCc1ccc([N+](=O)[O-])cc1 [Compound 35, 2-(2-(4'-nitrobenzyloxy)-4-methylphenyl)-prop-2-ene-1-ol]	4.6 µM	0.3 µM	5.5 µM	9.1 µM	8.7 µM	
CC(=O)Oc1ccccc1C1(COC(=O)c2ccccc2)CO1 (stereo not shown) [Compound 33-5]	43.3 µM	9.9 µM	6.2 µM	8.5 µM	7 µM	
CC(=O)Oc1ccc(C2(COC(=O)Cc3ccc(F)cc3)CO2)c(OC(C)=O)c1 (stereo not shown) [Compound 27-3, 2-(2',4'-Diacetoxyphenyl)-3-(4-fluorophenylacetoxy)-1,2-epoxypropane]	36.7 µM	3.9 µM	11 µM	9.3 µM	4.5 µM	
CC(=O)Oc1ccc(C2(COC(=O)Cc3ccc([N+](=O)[O-])cc3)CO2)c(OC(C)=O)c1 (stereo not shown) [Compound 27-2, 2-(2',4'-Diacetoxyphenyl)-3-(4-nitrophenylacetoxy)-1,2-epoxypropane]	23.5 µM	2.7 µM	4.1 µM	3.8 µM	2.4 µM	
Cc1ccc(C2(COC(=O)Cc3ccc(F)cc3)CO2)c(OC(=O)C(C)C)c1 (stereo not shown) [Compound 11-3, 10-(4-Fluorophenylacetoxy)-8,9-epoxythymol isobutyrate]	10.7 µM	1 µM	3.1 µM	3.7 µM	0.6 µM	
COc1ccc(C(=O)OCC(O)(CO)c2ccc(C)cc2OC(C)=O)cc1 (stereo not shown) [Compound 15-7, 10-(4-Methoxybenzoxy)-8,9-dihydroxythymol acetate]	> 100 µM	38.2 µM	63.3 µM	14.9 µM	15 µM	
Cc1ccc(C(O)(CO)COC(=O)Cc2ccc(F)cc2)c(OC(=O)C(C)C)c1 (stereo not shown) [Compound 15-8, 10-(4-Fluorophenylacetoxy)-8,9-dihydroxythymol isobutyrate]	> 100 µM	24.2 µM	55.9 µM	10.8 µM	12.2 µM	
CC(=O)Oc1cc(C)ccc1C(O)(CO)COC(=O)c1ccccc1 (stereo not shown) [Compound 15-5, 10-Benzoxy-8,9-dihydroxythymol acetate]	> 100 µM	35.1 µM	60.4 µM	16.6 µM	12.7 µM	
CC(=O)OCC1(c2ccc(OC(C)=O)cc2OC(C)=O)CO1 (stereo not shown) [Compound 27-5, 2-(2',4'-Diacetoxyphenyl)-3-acetoxy-1,2-epoxypropane]	18.6 µM	2.9 µM	5 µM	4.8 µM	1.4 µM	
CC(=O)Oc1ccc(C2(COC(=O)Cc3ccccc3)CO2)c(OC(C)=O)c1 (stereo not shown) [Compound 27-1, 2-(2',4'-Diacetoxyphenyl)-3-phenylacetoxy-1,2-epoxypropane]		2.9 µM	4.7 µM	4.5 µM	3 µM	30.6 µM
CC(=O)Oc1cc(C)ccc1C(O)(CO)COC(=O)c1ccc([N+](=O)[O-])cc1 (stereo not shown) [Compound 15-6, 10-(4-Nitrobenzoxy)-8,9-dihydroxythymol acetate]	> 100 µM	19.6 µM	40.9 µM	10.9 µM	10.4 µM	
CC(=O)Oc1ccccc1C1(COC(=O)Cc2ccccc2)CO1 (stereo not shown) [Compound 33-1]		11.5 µM	9.8 µM	9.3 µM	10.4 µM	42.8 µM
C=C(CO)c1ccc(C)cc1OCc1ccc(OC)cc1 [Compound 35-1]	10.6 µM	13.1 µM	11.8 µM	12.7 µM	12.1 µM	
Cc1ccc(C2(COC(=O)Cc3ccc([N+](=O)[O-])cc3)CO2)c(OC(=O)C(C)C)c1 (stereo not shown) [Compound 11-2, 10-(4-Nitrophenylacetoxy)-8,9-epoxythymol isobutyrate]	32.1 µM	14 µM	28.4 µM	9.9 µM	8.7 µM	
CC(=O)OCC1(c2ccc(C)cc2OC(C)=O)CO1 (stereo not shown) [Compound 14-8, 10-Acetoxy-8,9-epoxythymol acetate]	51.2 µM	12.6 µM	45.5 µM	14.9 µM	13.3 µM	
CC(=O)Oc1ccccc1C1(COC(=O)Cc2ccc([N+](=O)[O-])cc2)CO1 (stereo not shown) [Compound 33-2]	44.3 µM	24.4 µM	16.4 µM	14.2 µM	17.3 µM	
Cc1ccc(C2(COC(=O)C(C)C)CO2)c(OC(=O)C(C)C)c1 (stereo not shown) [Compound 11, 10-isobutyryloxy-8,9-epoxythymol isobutyrate]	40.5 µM	8.3 µM	37.2 µM	11.6 µM	10.8 µM	
